Data as given in ChEMBL document CHEMBL1201862, “PubChem BioAssay data set” (2004).
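How tested: cells in 96-well plates exposed to compound for 48 hours at five concentrations. GI50 = concentration required for 50% inhibition of growth.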 Activity calls are given as the source filed them. No stated cut-off is given here; in the data, active = GI50 up to about 1.1 µM and inactive = higher.

Key:
Test in all cases: NCI tumour cell line growth inhibition, 48 h
DLD-1 = test system: DLD-1
EKVX = test system: EKVX
KM12 = test system: KM12
A549 = test system: A549
COLO 205 = test system: COLO 205
SF-268 = test system: SF-268
CCRF-CEM = test system: CCRF-CEM
SNB-75 = test system: SNB-75
HOP-18 = test system: HOP-18
NCI-H23 = test system: NCI-H23
DMS-114 = test system: DMS-114
HCT-116 = test system: HCT-116
SK-OV-3 = test system: SK-OV-3
SF-539 = test system: SF-539
UO-31 = test system: UO-31
HCT-15 = test system: HCT-15
SW-620 = test system: SW-620
SNB-78 = test system: SNB-78
786-0 = test system: 786-0
HL-60 = test system: HL-60
U-251 = test system: U-251
A498 = test system: A498
UACC-257 = test system: UACC-257
OVCAR-4 = test system: OVCAR-4
UACC-62 = test system: UACC-62
HT-29 = test system: HT-29
OVCAR-5 = test system: OVCAR-5
SF-295 = test system: SF-295
K562 = test system: K562
Malme-3M = test system: Malme-3M
IGROV-1 = test system: IGROV-1
MOLT-4 = test system: MOLT-4
LXFL 529 = test system: LXFL 529
KM-20L2 = test system: KM-20L2
DMS-273 = test system: DMS-273
CAKI-1 = test system: CAKI-1
M19-MEL = test system: M19-MEL
OVCAR-3 = test system: OVCAR-3
TK-10 = test system: TK-10
SK-MEL-2 = test system: SK-MEL-2
OVCAR-8 = test system: OVCAR-8
HCC 2998 = test system: HCC 2998
ACHN = test system: ACHN
HOP-62 = test system: HOP-62
NCI-H460 = test system: NCI-H460
HOP-92 = test system: HOP-92
SK-MEL-28 = test system: SK-MEL-28
XF498 = test system: XF498
M14 = test system: M14
SNB-19 = test system: SNB-19
SN12C = test system: SN12C
SK-MEL-5 = test system: SK-MEL-5
NCI-H226 = test system: NCI-H226
LOX IMVI = test system: LOX IMVI
RPMI-8226 = test system: RPMI-8226

Measured: GI50

CCc1cc(C(=O)OC)cn1C(=N)c1ccc(Cl)cc1
inactive: DLD-1 > 100 µM | EKVX > 100 µM | KM12 > 100 µM | A549 > 100 µM | COLO 205 > 100 µM | SF-268 > 100 µM | CCRF-CEM > 100 µM | SNB-75 87.5 µM | HOP-18 > 100 µM | NCI-H23 > 100 µM | DMS-114 > 100 µM | HCT-116 > 100 µM | SK-OV-3 > 100 µM | SF-539 > 100 µM | UO-31 > 100 µM | SW-620 > 100 µM | SNB-78 > 100 µM | 786-0 > 100 µM | HL-60 > 100 µM | U-251 > 100 µM | A498 > 100 µM | UACC-257 > 100 µM | OVCAR-4 > 100 µM | UACC-62 > 100 µM | HT-29 > 100 µM | OVCAR-5 > 100 µM | SF-295 > 100 µM | K562 > 100 µM | Malme-3M > 100 µM | IGROV-1 > 100 µM | MOLT-4 > 100 µM | LXFL 529 > 100 µM | KM-20L2 > 100 µM | DMS-273 > 100 µM | CAKI-1 > 100 µM | M19-MEL > 100 µM | OVCAR-3 > 100 µM | TK-10 > 100 µM | SK-MEL-2 > 100 µM | OVCAR-8 > 100 µM | HCC 2998 > 100 µM | ACHN > 100 µM | HOP-62 > 100 µM | NCI-H460 > 100 µM | HOP-92 > 100 µM | SK-MEL-28 > 100 µM | XF498 > 100 µM | M14 > 100 µM | SNB-19 > 100 µM | SN12C > 100 µM | SK-MEL-5 > 100 µM | NCI-H226 > 100 µM | LOX IMVI > 100 µM | RPMI-8226 > 100 µM
> 100 µM: HCT-15
